Data on two molecules can be found in paper PMC2890037 (Biochemistry, 2010).

Holding throughout (format): biochemical
The target in assay [1] is T1, triosephosphate isomerase (TIM), wildtype yeast (Saccharomyces cerevisiae, UniProt P00942).
T1 sequence (P00942 2-248): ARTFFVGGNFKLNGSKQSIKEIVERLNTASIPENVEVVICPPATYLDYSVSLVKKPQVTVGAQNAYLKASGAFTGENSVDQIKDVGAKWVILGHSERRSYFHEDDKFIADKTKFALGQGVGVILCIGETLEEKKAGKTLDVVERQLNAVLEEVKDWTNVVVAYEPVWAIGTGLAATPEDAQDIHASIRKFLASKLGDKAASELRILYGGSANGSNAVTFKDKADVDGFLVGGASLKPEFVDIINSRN
As to the kind of experiment: steady-state kinetics of isomerization. As to conditions: read-out: Km ^b mM.

For assay [2], the target named is T2, triosephosphate isomerase (TIM), K12G mutant yeast (Saccharomyces cerevisiae, UniProt P00942, K12G).
T2 sequence (P00942 2-248 K12G): T1 sequence (P00942 2-248) with K11G

Assay [3] addresses T1, triosephosphate isomerase (TIM), wildtype yeast.

Substitutions are numbered along the chain they refer to.

The Km is the concentration of substrate that gives half-maximal velocity. As for `O=C[C@H](O)COP(=O)(O)O` [GAP, (R)-glyceraldehyde 3-phosphate], the Km in assay [1] was determined as 1.1 ± 0.2 mM.
By Ki is commonly meant a dissociation constant, usually derived from enzyme kinetics or from competition with a known ligand. Read a low Ki as higher affinity. In the case of `O=C(O)COP(=O)(O)O` [PGA, 2-phosphoglycolate], the values for the Ki in assay [2] and in assay [3] were 1100 ± 200 µM and 19 ± 4 µM, respectively.
